According to patent US9877980B2, “Method and composition for treatment or prevention of type 2 diabetes and hyperlipidemia” (Chun-Ching Shih, priority 2016, dated 2018):

Tests used:
Type in all cases: in vivo
Conditions in all cases: HFD mice, 4 weeks, vs HF group
11β-HSD1 = test: Semi-quantitative RT-PCR of liver mRNA: 11β-HSD1
Procedure: (§1) The following experiment was performed and approved by the guidelines of the Institutional Animal Care and Use Committee of Central Taiwan University of Science and Technology. The 4-week old male C57BL/6J mice (total amount n=63) were purchased from the National Laboratory Animal Breeding and Research Center (Taipei, Taiwan). After acclimatization for one week, all of the mice were divided randomly into the control (CON) group and the high-fat diet (HFD) group. […] After HFD exposure for 8 weeks, the HFD group was further randomly subdivided into 6 groups (n=9 per group) to receive different treatments by oral gavage once daily for four weeks and on HFD. […] The HF+B1, HF+B2, and […] are collectively termed BB-treated HFD groups in the following examples. The CON mice were administered vehicle. After dosing for 4 weeks, the mice were given no food at night and sacrificed after 12 h of fasting on the next day. All of the individual tissues were collected and weighed, and portions were instantly frozen using liquid nitrogen and kept at −80° C. for subsequent target gene analysis. Blood samples (0.8 mL) were collected for analysis of blood parameters.
(§2) Total RNA from liver tissue of mice was isolated with a Trizol Reagent (Molecular Research Center, Inc., Cincinnati, Ohio, USA) according to the manufacturer's instructions. The integrity of the extracted total RNA was examined by 2% agarose gel electrophoresis, and the RNA concentration was determined by the ultraviolet (UV) light absorbency at 260 nm and 280 nm (Spectrophotometer U-2800A, Hitachi). The quality of the RNA was confirmed by ethidium bromide staining of 18S and 28S ribosomal RNA after electrophoresis on 2% agarose gel containing 6% formaldehyde.
(§3) Levels of mRNA of genes of interest were quantified by semi-quantitative reverse transcription polymerase chain reaction (RT-PCR). […] PCR products were analyzed by 2% agarose gels and stained with ethidium bromide.

G6Pase = test: Semi-quantitative RT-PCR of liver mRNA: G6Pase
Procedure: as §1, §2, §3

Akt = test: Western blotting of phospho-Akt/total Akt in skeletal muscle and liver
Procedure: The following experiment was performed and approved by the guidelines of the Institutional Animal Care and Use Committee of Central Taiwan University of Science and Technology. The 4-week old male C57BL/6J mice (total amount n=63) were purchased from the National Laboratory Animal Breeding and Research Center (Taipei, Taiwan). After acclimatization for one week, all of the mice were divided randomly into the control (CON) group and the high-fat diet (HFD) group. For the following 12 weeks, the CON group (n=9) was kept on a low-fat diet (Diet 12450B, Research Diets, Inc., New Brunswick, N.J., USA), while the HFD group (n=54) was exposed to a high-fat diet (Diet 12451, Research Diets, New Brunswick, N.J., USA). The low-fat diet was composed of protein 20%, carbohydrate 70% and fat 10%, whereas the high-fat diet was composed of protein 20%, carbohydrate 35%, and fat 45% (of total energy, % kcal). After HFD exposure for 8 weeks, the HFD group was further randomly subdivided into 6 groups (n=9 per group) to receive different treatments by oral gavage once daily for four weeks and on HFD. […] The HF+B1, HF+B2, and […] are collectively termed BB-treated HFD groups in the following examples. The CON mice were administered vehicle. After dosing for 4 weeks, the mice were given no food at night and sacrificed after 12 h of fasting on the next day. All of the individual tissues were collected and weighed, and portions were instantly frozen using liquid nitrogen and kept at −80° C. for subsequent target gene analysis. Blood samples (0.8 mL) were collected for analysis of blood parameters.
Protein extractions and immunoblots for the determination of phospho-AMPK (Thr^172) and phospho-Akt (Ser^473) proteins in skeletal muscle and liver tissue of mice (n=9) were carried out. About 0.1 g of liver tissue and skeletal muscle was used for the homogenate samples. Samples were powdered under liquid nitrogen and homogenized for 20 seconds in 500 μL buffer containing 20 mM Tris-HCL1 (pH 7.4 at 4° C.), 2% SDS, 5 mM EDTA, 5 mM EGTA, 1 mM DTT, 100 mM NaF, 2 mM sodium vanadate, 0.5 mM phenylmethylsulfonyl fluoride, 10 μg/mL leupeptin, and […] pepstatin. The protein concentration in supernatant was determined with a BCA protein assay kit (Thermo Scientific, Rockford, Ill., USA). 20 μg of proteins were separated by electrophoresis on a polyacrylamide gel 12% (SDS-PAGE) and transferred to a nitrocellulose membrane. The membranes were blocked with 5% slim milk in Tris-buffered saline (TBS)(Amersham BioSciences, Uppsala, Sweden) containing 0.05% Tween-20 (Bio Rad, CA, USA) and incubated overnight at 4° C. with anti-phospho-AMPK (Abcam Inc., Cambridge, Mass., USA) and anti-phospho-Akt (Cell signaling Technology, Inc., Danvers, Mass., USA) rabbit polyclonal antibodies at 1:200 dilution. Subsequently, the membranes were washed three times with TBS containing 0.05% Tween-20 and incubated with secondary antibody anti-rabbit (1:1000) (Jackson ImmunoResearch Laboratories, Inc., PA, USA) for 1 hour. Immunoreactive bands were detected with ECL reagent kit (GE Healthcare BioSciences, Buckinghamshire, UK). The intensity of blotting was analyzed using Alpha Easy FC software (Alpha Innotech Corporation, Randburg, South Africa). Structural proteins GAPDH (Santa Cruz Biotechnology, CA, USA) in the samples were used as the loading control.

PPARα = test: Semi-quantitative RT-PCR of liver mRNA: PPARα
Procedure: as §1, §2, §3

GPAT = test: Semi-quantitative RT-PCR of liver mRNA: GPAT
Procedure: as §1, §2, §3

SMILES: OCC1O[C@@H](O[C@@H]2Cc3c(O)cc(O)cc3O[C@@H]2c2ccc(O)c(O)c2)C(O)C(O)[C@@H]1O (single isomer, unassigned; (-)) [compound of formula I, (−)-epicatechin-3-O-β-D-allopyranoside]
- liver mRNA level of 11β-HSD1 (11β-HSD1; 10 mg/kg/day oral gavage): significantly reduced
- liver mRNA level of 11β-HSD1 (11β-HSD1; 20 mg/kg/day oral gavage): significantly reduced
- liver mRNA level of 11β-HSD1 (11β-HSD1; 40 mg/kg/day oral gavage): significantly reduced
- liver mRNA level of G6Pase (G6Pase; 10 mg/kg/day oral gavage): significantly reduced
- liver mRNA level of G6Pase (G6Pase; 20 mg/kg/day oral gavage): significantly reduced
- liver mRNA level of G6Pase (G6Pase; 40 mg/kg/day oral gavage): significantly reduced
- expression level of phospho-Akt/total Akt (Akt; liver, 10 mg/kg/day oral gavage): increased
- expression level of phospho-Akt/total Akt (Akt; liver, 20 mg/kg/day oral gavage): increased
- expression level of phospho-Akt/total Akt (Akt; liver, 40 mg/kg/day oral gavage): increased
- expression level of phospho-Akt/total Akt (Akt; skeletal muscle, 10 mg/kg/day oral gavage): increased
- expression level of phospho-Akt/total Akt (Akt; skeletal muscle, 20 mg/kg/day oral gavage): increased
- expression level of phospho-Akt/total Akt (Akt; skeletal muscle, 40 mg/kg/day oral gavage): increased
- liver PPARα mRNA level (PPARα; 10 mg/kg/day oral gavage): enhanced
- liver PPARα mRNA level (PPARα; 20 mg/kg/day oral gavage): enhanced
- liver PPARα mRNA level (PPARα; 40 mg/kg/day oral gavage): enhanced
- liver mRNA level of GPAT (GPAT; 10 mg/kg/day oral gavage): significantly reduced
- liver mRNA level of GPAT (GPAT; 20 mg/kg/day oral gavage): significantly reduced
- liver mRNA level of GPAT (GPAT; 40 mg/kg/day oral gavage): significantly reduced
